How the values were obtained:
[1] = system: RPMI-8226; experiment: NCI screening panel (SRB); format: cell-based; conditions: Homo sapiens, RPMI-8226 (Leukemia), 48 h; for CC50: read-out: LC50 (the source's name)
[2] = molecular target: EGFR (T790M) (Homo sapiens, UniProt P00533, T790M); experiment: Kinase assays, selectivity panel (qPCR); conditions: read-out: % Control @ 300 nM
[3] = system: SNB-19; experiment: NCI screening panel (SRB); format: cell-based; conditions: Homo sapiens, SNB-19 (CNS), 48 h; for CC50: read-out: LC50 (the source's name)
[4] = system: OVCAR-8; experiment: NCI screening panel (SRB); format: cell-based; conditions: Homo sapiens, OVCAR-8 (Ovarian), 48 h; for CC50: read-out: LC50 (the source's name)
[5] = molecular target: EGFR (E746-A750del) (Homo sapiens, UniProt P00533, DEL746-750); experiment: Kinase assays, selectivity panel (qPCR); conditions: read-out: % Control @ 300 nM
Sequence of EGFR (E746-A750del) (P00533 with tags, fused parts or gaps DEL746-750): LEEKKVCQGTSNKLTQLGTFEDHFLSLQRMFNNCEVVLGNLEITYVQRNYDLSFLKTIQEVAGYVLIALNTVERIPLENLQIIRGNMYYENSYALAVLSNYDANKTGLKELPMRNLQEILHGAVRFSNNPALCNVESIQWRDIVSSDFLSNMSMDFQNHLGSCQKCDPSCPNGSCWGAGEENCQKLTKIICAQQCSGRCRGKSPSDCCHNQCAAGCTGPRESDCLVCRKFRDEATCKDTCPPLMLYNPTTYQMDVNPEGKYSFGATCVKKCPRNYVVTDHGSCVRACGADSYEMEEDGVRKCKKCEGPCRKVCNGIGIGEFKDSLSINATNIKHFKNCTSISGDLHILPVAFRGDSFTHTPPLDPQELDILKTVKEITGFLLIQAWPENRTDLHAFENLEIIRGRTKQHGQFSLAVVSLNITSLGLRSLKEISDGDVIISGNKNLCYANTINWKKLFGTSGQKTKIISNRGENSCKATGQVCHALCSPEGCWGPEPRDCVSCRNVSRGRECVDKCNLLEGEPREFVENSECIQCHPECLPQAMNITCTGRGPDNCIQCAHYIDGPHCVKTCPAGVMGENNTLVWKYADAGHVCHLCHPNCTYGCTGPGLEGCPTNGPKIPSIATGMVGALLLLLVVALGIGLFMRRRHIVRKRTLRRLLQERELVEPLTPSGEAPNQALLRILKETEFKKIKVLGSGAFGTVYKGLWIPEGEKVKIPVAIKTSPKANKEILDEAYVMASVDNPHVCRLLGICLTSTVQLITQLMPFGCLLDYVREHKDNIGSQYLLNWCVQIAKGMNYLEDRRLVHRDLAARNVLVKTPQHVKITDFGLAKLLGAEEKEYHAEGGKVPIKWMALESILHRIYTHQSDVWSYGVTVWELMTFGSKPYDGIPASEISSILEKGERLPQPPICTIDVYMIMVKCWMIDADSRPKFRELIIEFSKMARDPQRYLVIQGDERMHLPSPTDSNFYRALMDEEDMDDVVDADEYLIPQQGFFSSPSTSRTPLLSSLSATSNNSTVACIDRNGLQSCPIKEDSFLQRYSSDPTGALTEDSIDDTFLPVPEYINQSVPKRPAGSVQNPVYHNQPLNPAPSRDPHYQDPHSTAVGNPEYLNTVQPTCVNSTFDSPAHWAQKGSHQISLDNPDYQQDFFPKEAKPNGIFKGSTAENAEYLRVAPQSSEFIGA

[6] = system: MDA-MB-435; experiment: NCI screening panel (SRB); format: cell-based; conditions: Homo sapiens, MDA-MB-435 (Melanoma), 48 h; for CC50: read-out: LC50 (the source's name)
[7] = system: SF-268; experiment: NCI screening panel (SRB); format: cell-based; conditions: Homo sapiens, SF-268 (CNS), 48 h; for CC50: read-out: LC50 (the source's name)
[8] = system: CCRF-CEM; experiment: NCI screening panel (SRB); format: cell-based; conditions: Homo sapiens, CCRF-CEM (Leukemia), 48 h; for CC50: read-out: LC50 (the source's name)
[9] = molecular target: SRC (Homo sapiens, UniProt P12931); experiment: Kinase assays, selectivity panel (qPCR); conditions: read-out: % Control @ 300 nM
Sequence of SRC (P12931 whole entry): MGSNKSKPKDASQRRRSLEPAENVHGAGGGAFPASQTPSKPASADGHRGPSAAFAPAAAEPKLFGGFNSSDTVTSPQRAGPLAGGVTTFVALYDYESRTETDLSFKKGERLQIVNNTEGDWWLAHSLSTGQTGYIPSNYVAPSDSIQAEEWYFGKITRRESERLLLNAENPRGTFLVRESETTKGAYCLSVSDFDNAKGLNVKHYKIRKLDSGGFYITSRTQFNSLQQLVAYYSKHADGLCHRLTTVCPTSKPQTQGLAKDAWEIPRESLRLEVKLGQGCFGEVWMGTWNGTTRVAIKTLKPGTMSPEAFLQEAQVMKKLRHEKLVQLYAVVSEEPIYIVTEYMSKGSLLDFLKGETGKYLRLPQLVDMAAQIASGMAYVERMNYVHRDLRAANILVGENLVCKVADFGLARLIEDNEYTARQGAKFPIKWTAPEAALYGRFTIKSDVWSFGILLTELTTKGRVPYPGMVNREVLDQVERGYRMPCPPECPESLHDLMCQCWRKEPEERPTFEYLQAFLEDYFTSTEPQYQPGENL

[10] = system: EGFR (L747-T751del, Sins); experiment: Kinase assays, selectivity panel (qPCR)
[11] = system: SR; experiment: NCI screening panel (SRB); format: cell-based; conditions: Homo sapiens, SR (Leukemia), 48 h; for CC50: read-out: LC50 (the source's name)
[12] = system: M14; experiment: cells; conditions: Homo sapiens, M14, 48 h; for CC50: read-out: LC50
[13] = system: NCI-H226; experiment: NCI screening panel (SRB); format: cell-based; conditions: Homo sapiens, NCI-H226 (NSCLC), 48 h; for CC50: read-out: LC50 (the source's name)
[14] = system: HCT-15; experiment: NCI screening panel (SRB); format: cell-based; conditions: Homo sapiens, HCT-15 (Colon), 48 h; for CC50: read-out: LC50 (the source's name)
[15] = Plasma stability; format: in vitro ADME
Description: Thaw the frozen plasma immediately in a 37° C. water bath. Centrifuge plasma at 3,220 g for 10 minutes at room temperature to remove clots and collect supernatant into a fresh tube. Check and record the pH of the plasma. (Note: a. Only use plasma that has been thawed no more than twice since arrival. b. Only use plasma within the range of pH 7 to pH 8.)
The working solutions of test compounds and control compound are prepared in 50% water/50% acetonitrile and DMSO at the concentration of 100 μM, respectively. Propantheline is used as positive control for human and mouse plasma stability assay and mevinolin is used as the positive control for dog and rat plasma stability assay.
Add 5 μL of 100 μM working solution to 495 μL of pre-incubated human, monkey, dog, rat or mouse plasma to reach a final concentration of 1 μM. The final concentration of organic solvents is 0.5%. The assay is performed in duplicate. Incubate the reaction samples at 37° C. water bath with shaking at approximately 60 rpm. Take aliquots of 50 μL from the reaction samples at 0, 15, 30, 45, 60 and 120 minutes. Stop the reaction by adding 300 μL of room temperature quench solution (Acetonitrile containing internal standards (IS, 200 nM Labetalol, 100 nM Alprazolam and 2 μM Ketoprofen)). Vortex for 5 minutes. Centrifuge samples in plate at 3,220 g for 30 minutes at room temperature to precipitate protein. Transfer 100 μL of the supernatant to a new plate. The supernatant may be diluted with 100 μL or 200 μL water according to the LC/MS signal response and peak shape. Mix well and analyze samples using LC/MS/MS.

[16] = Log P determination (HPLC with reference substances); format: physicochemical; conditions: HPLC retention against reference substances of known log P
Description: Prepare thiourea in acetonitrile and ultrapure water mixture (1:1 in v:v) as unretained organic substance sample. Prepare acetanilide, methyl benzoate, benzophenone, benzyl benzoate, fluoranthene and DDT in acetonitrile and ultrapure water mixture (1:1 in v:v) as reference substances mixture.
Prepare the stock solutions of test compounds and control compound progesterone in acetonitrile at the concentration of 2 mM. Dilute one volume of the stock solution with one volume of ultrapure water. If not soluble, filtrate the sample using a 0.45 μm nylon membrane.
Prepare acidic or basic mobile phase according to the character of test compounds. Run a blank sample (ultrapure water mixture (1:1 in v:v)), followed by unretained organic substance sample and reference substances mixture. Then run the test compounds and control compound in singlet, and at the end of the batch rerun the reference substances mixture.

[17] = molecular target: CYP 2C19 (Homo sapiens, UniProt P33261); experiment: CYP450 inhibition; format: in vitro ADME
Sequence of CYP 2C19 (P33261 whole entry): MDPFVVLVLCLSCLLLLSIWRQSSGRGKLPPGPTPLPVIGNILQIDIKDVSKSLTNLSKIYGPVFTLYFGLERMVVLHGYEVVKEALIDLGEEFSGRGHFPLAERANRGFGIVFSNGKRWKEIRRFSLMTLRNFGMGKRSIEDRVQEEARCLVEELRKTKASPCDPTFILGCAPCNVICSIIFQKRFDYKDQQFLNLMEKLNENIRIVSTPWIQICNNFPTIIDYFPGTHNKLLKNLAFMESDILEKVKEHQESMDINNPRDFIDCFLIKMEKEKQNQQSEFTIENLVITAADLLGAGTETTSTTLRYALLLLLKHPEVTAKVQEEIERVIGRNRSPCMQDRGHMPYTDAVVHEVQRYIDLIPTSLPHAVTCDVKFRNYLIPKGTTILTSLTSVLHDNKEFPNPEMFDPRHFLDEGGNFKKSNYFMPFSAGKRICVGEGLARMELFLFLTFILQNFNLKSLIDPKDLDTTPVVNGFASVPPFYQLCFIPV
Description: (§1) Prepare stock solutions of the test compound and positive control compounds described in Table 8 in DMSO at 0, 0.2, 1, 2, 10, 50, 200, 2000 and 10000 μM. Transfer 1 μL of the stock solutions to the Incubation Plate. The final concentrations of test compound or positive control compound are 0, 0.001, 0.005, 0.01, 0.05, 0.25, 1, 10 and 50 μM. All experiments are performed in duplicate.

[18] = molecular target: CYP 2D6 (Homo sapiens, UniProt P10635); experiment: CYP450 inhibition; format: in vitro ADME
Sequence of CYP 2D6 (P10635 whole entry): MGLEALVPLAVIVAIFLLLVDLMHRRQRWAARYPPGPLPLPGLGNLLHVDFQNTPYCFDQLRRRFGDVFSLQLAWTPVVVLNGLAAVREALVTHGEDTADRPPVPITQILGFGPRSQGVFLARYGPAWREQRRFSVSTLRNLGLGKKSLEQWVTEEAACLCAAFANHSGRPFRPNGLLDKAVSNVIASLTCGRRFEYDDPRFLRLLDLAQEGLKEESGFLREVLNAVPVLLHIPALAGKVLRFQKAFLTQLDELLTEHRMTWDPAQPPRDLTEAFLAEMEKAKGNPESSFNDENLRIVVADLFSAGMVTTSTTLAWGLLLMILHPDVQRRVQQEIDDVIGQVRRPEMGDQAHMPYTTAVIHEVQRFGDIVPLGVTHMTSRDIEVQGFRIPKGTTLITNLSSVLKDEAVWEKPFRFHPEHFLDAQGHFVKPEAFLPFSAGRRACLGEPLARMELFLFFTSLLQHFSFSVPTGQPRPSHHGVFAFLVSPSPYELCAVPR
Description: as §1

[19] = molecular target: CYP 1A2 (Homo sapiens, UniProt P05177); experiment: CYP450 inhibition; format: in vitro ADME
Sequence of CYP 1A2 (P05177 whole entry): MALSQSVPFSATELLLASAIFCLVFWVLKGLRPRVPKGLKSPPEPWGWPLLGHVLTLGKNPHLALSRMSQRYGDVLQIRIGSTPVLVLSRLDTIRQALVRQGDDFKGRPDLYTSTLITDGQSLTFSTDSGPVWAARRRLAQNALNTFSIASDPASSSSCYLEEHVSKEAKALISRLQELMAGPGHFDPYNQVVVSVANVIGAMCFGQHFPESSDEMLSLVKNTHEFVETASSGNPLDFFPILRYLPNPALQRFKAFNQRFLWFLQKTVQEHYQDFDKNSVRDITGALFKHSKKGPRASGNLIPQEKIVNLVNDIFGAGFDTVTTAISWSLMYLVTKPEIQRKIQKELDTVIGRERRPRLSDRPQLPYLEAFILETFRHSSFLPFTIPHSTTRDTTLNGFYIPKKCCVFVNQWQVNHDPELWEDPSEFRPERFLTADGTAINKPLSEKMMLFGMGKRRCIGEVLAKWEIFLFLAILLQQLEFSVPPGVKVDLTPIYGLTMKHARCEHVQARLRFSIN
Description: as §1

[20] = molecular target: CYP 2C9 (Homo sapiens, UniProt P11712); experiment: CYP450 inhibition; format: in vitro ADME
Sequence of CYP 2C9 (P11712 whole entry): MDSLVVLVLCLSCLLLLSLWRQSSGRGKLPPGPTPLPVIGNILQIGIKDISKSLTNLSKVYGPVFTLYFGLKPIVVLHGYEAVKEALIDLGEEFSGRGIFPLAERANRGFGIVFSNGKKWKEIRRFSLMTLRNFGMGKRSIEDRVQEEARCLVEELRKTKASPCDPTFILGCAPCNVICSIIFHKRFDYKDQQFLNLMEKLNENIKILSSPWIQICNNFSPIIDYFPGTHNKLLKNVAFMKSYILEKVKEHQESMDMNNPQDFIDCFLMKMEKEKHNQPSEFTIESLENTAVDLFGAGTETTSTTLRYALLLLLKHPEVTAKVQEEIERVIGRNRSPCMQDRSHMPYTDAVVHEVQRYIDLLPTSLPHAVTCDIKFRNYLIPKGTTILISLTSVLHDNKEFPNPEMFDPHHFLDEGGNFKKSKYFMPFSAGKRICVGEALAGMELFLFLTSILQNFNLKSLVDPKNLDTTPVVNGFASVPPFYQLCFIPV
Description: as §1

Sequence of EGFR (T790M) (P00533 25-1210 T790M): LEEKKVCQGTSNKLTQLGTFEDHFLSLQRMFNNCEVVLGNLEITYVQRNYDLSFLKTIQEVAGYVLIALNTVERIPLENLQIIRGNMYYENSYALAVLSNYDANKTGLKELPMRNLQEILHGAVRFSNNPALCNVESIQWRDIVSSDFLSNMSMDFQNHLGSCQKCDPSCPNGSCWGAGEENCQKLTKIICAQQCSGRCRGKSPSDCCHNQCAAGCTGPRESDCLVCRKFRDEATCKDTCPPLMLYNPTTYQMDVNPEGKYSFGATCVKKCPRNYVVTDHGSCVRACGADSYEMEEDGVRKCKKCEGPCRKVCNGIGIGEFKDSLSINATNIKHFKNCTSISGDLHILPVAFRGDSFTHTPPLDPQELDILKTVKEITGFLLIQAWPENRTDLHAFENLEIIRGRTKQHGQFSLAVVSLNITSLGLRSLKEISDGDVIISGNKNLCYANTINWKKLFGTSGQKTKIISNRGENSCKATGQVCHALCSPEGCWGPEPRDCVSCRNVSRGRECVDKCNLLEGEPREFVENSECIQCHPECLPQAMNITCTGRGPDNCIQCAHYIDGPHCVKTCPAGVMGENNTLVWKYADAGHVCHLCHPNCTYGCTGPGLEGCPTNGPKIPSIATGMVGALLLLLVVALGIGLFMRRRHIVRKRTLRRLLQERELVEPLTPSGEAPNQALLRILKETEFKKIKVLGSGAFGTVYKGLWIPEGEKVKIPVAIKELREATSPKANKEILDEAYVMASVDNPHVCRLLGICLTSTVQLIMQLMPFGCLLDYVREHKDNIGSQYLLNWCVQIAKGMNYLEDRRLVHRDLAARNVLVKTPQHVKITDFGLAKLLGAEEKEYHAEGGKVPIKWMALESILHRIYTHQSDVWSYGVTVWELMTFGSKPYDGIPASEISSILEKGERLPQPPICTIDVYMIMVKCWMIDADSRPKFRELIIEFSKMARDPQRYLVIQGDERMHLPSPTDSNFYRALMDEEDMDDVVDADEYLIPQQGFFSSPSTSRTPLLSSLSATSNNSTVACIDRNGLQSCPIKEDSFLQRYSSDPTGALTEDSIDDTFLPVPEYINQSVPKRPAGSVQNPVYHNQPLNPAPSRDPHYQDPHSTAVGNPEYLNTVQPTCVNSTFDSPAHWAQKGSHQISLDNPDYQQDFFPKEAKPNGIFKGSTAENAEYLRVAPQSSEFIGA

## CN(C)C/C=C/C(=O)Nc1cc2c(Nc3ccc(F)c(Cl)c3F)ncnc2cc1OCCOC(F)F.O=C(O)/C=C\C(=O)O.O=C(O)/C=C\C(=O)O [Example I-9-MA, (E)-N-[4-(3-chloro-2,4-difluoro-anilino)-7-[2-(difluoromethoxy)ethoxy]quinazolin-6-yl]-4-(dimethylamino)but-2-enamide di-maleic acid salt]
[1]
  GI50: 1.29 µM
  CC50: > 100 µM
[2]
  remaining activity at 0.3 µM: 0.1%
[3]
  GI50: 1.6 µM
  CC50: 36.6 µM
[4]
  GI50: 1.09 µM
  CC50: 32.7 µM
[5]
  remaining activity at 0.3 µM: 3.6%
[6]
  GI50: 1.17 µM
  CC50: 27.2 µM
[7]
  GI50: 0.747 µM
  CC50: 27.3 µM
[8]
  GI50: 2.47 µM
  CC50: > 100 µM
[9]
  remaining activity at 0.3 µM: 3.5%
[10]
  % Control @ 300 nM: 8.6%
[11]
  GI50: 0.439 µM
  CC50: 59.2 µM
[12]
  GI50: 1.44 µM
  CC50: 11 µM
[13]
  GI50: 1.71 µM
  CC50: 9.7 µM
[14]
  GI50: 0.675 µM
  CC50: 9.46 µM

## CN(C)C/C=C/C(=O)Nc1cc2c(Nc3ccc(F)c(Cl)c3)ncnc2cc1O[C@H]1CCOC1 [Afatinib, reference compound]
[15]; 60 min
  Dog Remaining Percentage (%): 111.61%
  Human Remaining Percentage (%): 94.78%
  Monkey Remaining Percentage (%): 102.98%
  Mouse Remaining Percentage (%): 101.81%
  Rat Remaining Percentage (%): 101.43%
[15]; 120 min
  Dog Remaining Percentage (%): 102.15%
  Human Remaining Percentage (%): 98.62%
  Monkey Remaining Percentage (%): 97.24%
  Mouse Remaining Percentage (%): 106.59%
  Rat Remaining Percentage (%): 95.31%
[16]
  chromatographic logP: 4.26
[17]
  IC50: 47.8 µM
[18]
  IC50: 28 µM
[19]
  IC50: > 50 µM
[20]
  IC50: 34.7 µM

## CN(C)C/C=C/C(=O)Nc1cc2c(Nc3cccc(Cl)c3F)ncnc2cc1OCCOC(F)F.O=C(O)/C=C\C(=O)O [Example I-5-MA, (E)-N-[4-(3-chloro-2-fluoro-anilino)-7-[2-(difluoromethoxy)ethoxy]quinazolin-6-yl]-4-(dimethylamino)but-2-enamide dimaleic acid salt]
[15]; 60 min
  Dog Remaining Percentage (%): 104.57%
  Human Remaining Percentage (%): 101.95%
  Monkey Remaining Percentage (%): 85.79%
  Mouse Remaining Percentage (%): 95.45%
  Rat Remaining Percentage (%): 99.28%
[15]; 120 min
  Dog Remaining Percentage (%): 102.13%
  Human Remaining Percentage (%): 95.45%
  Monkey Remaining Percentage (%): 83.32%
  Mouse Remaining Percentage (%): 105.25%
  Rat Remaining Percentage (%): 95.14%
[16]
  chromatographic logP: 3.57
[17]
  IC50: 29.1 µM
[18]
  IC50: 25.7 µM
[19]
  IC50: > 50 µM
[20]
  IC50: 30 µM

## O=C(/C=C/CN1CCCCC1)Nc1cc2c(Nc3ccc(F)c(Cl)c3F)ncnc2cc1OCCOC(F)F.O=C(O)/C=C\C(=O)O.O=C(O)/C=C\C(=O)O [Example I-10-MA, (E)-N-[4-(3-chloro-2,4-difluoro-anilino)-7-[2-(difluoromethoxy)ethoxy]quinazolin-6-yl]-4-(1-piperidyl)but-2-enamide di-maleic acid salt]
[1]
  GI50: 1.64 µM
  CC50: 58.9 µM
[2]
  remaining activity at 0.3 µM: 0.75%
[3]
  GI50: 2.16 µM
  CC50: 68.8 µM
[4]
  GI50: 1.35 µM
  CC50: > 100 µM
[5]
  remaining activity at 0.3 µM: 2.7%
[6]
  GI50: 1.8 µM
  CC50: 28.6 µM
[7]
  GI50: 1.25 µM
  CC50: 41.7 µM
[8]
  GI50: 2.27 µM
  CC50: > 100 µM
[9]
  remaining activity at 0.3 µM: 4.8%
[10]
  % Control @ 300 nM: 0%
[11]
  GI50: 0.816 µM
  CC50: > 100 µM
[12]
  GI50: 1.82 µM
  CC50: > 100 µM
[13]
  GI50: 1.77 µM
  CC50: > 100 µM
[14]
  GI50: 1.34 µM
  CC50: 23 µM

— US20190016689A1, “NOVEL FLUORINATED QUINAZOLINE DERIVATIVES AS EGFR INHIBITORS” (TRILLIUM THERAPEUTICS INC., priority 2016, published 2019)
